Results as given in ChEMBL document CHEMBL5136978, “Research progress in pharmacological activities and structure-activity relationships of tetralone scaffolds as pharmacophore and fluorescent skeleton” (Eur J Med Chem, 2022).
pIC50: −log10 of the molar value. Values after ≈ are worked out from the molar mass of the structure shown. Blank lines part the entries; values can stand above or below the compound they belong to.

Columns and labels:
[1] = Antioxidant activity assessed as DPPH radical scavenging activity incubated for 30 mins under dark condition by absorbance based assay; assay type: functional
[2] = Antioxidant activity assessed as superoxide scavenging activity incubated for 20 mins by absorbance based assay; assay type: functional
[3] = Antioxidant activity assessed as hydroxyl radical scavenging activity incubated for 30 mins by absorbance based assay; assay type: functional
A549 = experiment: Antiproliferative activity against human A549 cells assessed as cell growth inhibition by MTT assay; assay type: functional, cell-based
HT-29 = experiment: Antiproliferative activity against human HT-29 cells assessed as cell growth inhibition by MTT assay; assay type: functional, cell-based
T-24 = experiment: Antiproliferative activity against human T24 cells assessed as cell growth inhibition by MTT assay; assay type: functional, cell-based
MCF7 [4] = experiment: Antiproliferative activity against human MCF7 cells assessed as cell growth inhibition by MTT assay; assay type: functional, cell-based
HepG2 [5] = experiment: Antiproliferative activity against human HepG2 cells assessed as cell growth inhibition by MTT assay; assay type: functional, cell-based
MCF7 [6] = experiment: cells; assay type: functional, cell-based; settings: Homo sapiens, MCF7, 72 h
Description: Cytotoxicity against human MCF7 cells assessed as cell growth inhibition incubated for 3 days by MTT assay

Nannizzia gypsea = experiment: Antifungal activity against Microsporum gypseum C 115 2000 assessed as fungal growth inhibition by cup-plate method; assay type: functional
[7] = target: T1, 1,25-dihydroxyvitamin D(3) 24-hydroxylase, mitochondrial (Homo sapiens, UniProt Q07973); experiment: Displacement of 25-hydroxy-[26,27-methyl-3H]-vitamin D3 from CYP24 in 1,25(OH)2D3-treated human DU-145 cells using 25-(OH)D3 as substrate pretreated with 1,25(OH)2D3 for 24 hrs followed by compound addition measured after 30 mins by HPLC analysis; assay type: cell-based
T1 sequence (Q07973 whole entry): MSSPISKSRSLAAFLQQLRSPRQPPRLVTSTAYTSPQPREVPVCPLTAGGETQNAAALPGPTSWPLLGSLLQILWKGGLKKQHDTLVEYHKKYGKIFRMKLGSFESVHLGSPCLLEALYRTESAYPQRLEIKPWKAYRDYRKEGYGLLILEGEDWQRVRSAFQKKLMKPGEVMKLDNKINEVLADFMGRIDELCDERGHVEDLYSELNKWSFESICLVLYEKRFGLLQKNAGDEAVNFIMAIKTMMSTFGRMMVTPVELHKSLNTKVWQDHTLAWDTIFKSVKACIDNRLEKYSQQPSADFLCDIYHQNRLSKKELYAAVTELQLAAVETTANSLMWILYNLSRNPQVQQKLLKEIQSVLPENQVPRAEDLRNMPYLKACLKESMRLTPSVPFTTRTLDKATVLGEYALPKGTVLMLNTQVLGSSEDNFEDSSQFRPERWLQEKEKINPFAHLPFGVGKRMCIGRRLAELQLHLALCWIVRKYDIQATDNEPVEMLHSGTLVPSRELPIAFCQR

DU-145 = experiment: Cytotoxicity against 1,25-(OH)2D3-treated human DU-145 cells assessed as cell growth inhibition incubated for 96 hrs and re-dosed after 48 hrs […] by MTT assay relative to control; assay type: functional; parameters: scale not given: the % may be the effect or the level left; settings: time 273 hrs
[8] = system: Trypanosoma brucei brucei; experiment: Antitrypanosomal activity against Trypanosoma brucei brucei trypomastigotes assessed as parasite viability measured after 48 hrs by resazurin based fluorescence assay relative to control; assay type: functional
[9] = system: Trypanosoma brucei brucei; experiment: Antitrypanosomal activity against Trypanosoma brucei brucei trypomastigotes assessed as parasite viability measured after 48 hrs by resazurin based fluorescence assay; assay type: functional, organism-based
[10] = target: T2, Amine oxidase [flavin-containing] A (Homo sapiens, UniProt P21397); experiment: Inhibition of recombinant human MAO-A assessed as measuring amount of 4-hydroxyquinoline using kynuramine as substrate incubated for 20 mins by fluorescence spectrophotometry
T2 sequence (P21397 whole entry): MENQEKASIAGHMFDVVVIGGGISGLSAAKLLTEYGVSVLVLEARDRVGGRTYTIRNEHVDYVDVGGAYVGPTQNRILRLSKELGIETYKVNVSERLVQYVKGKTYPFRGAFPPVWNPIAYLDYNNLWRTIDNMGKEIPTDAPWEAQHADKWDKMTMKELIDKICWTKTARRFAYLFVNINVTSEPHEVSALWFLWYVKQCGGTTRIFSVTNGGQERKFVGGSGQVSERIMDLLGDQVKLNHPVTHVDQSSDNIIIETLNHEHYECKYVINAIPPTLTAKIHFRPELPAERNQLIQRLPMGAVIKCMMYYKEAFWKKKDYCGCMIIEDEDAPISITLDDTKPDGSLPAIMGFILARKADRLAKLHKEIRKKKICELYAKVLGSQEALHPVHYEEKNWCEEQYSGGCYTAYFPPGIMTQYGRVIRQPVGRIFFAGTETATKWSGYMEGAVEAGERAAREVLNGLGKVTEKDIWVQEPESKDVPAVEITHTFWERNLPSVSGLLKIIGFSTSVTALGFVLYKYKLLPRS

Candida albicans = experiment: Antifungal activity against Candida albicans MTCC 227 assessed as fungal growth inhibition; assay type: functional
Aspergillus fumigatus = experiment: Antifungal activity against Aspergillus fumigatus MTCC 343 assessed as fungal growth inhibition; assay type: functional
RAW264.7 = experiment: Inhibition of ROS production in LPS-stimulated mouse RAW264.7 cells preincubated for 1 hr followed by LPS stimulation measured after 24 hrs by fluorometry; assay type: functional, cell-based
HepG2 [11] = experiment: Antiproliferative activity against human HepG2 cells assessed as cell growth inhibition at 500 uM for 24 to 72 hrs by MTT assay relative to control; assay type: functional; parameters: scale not given: the % may be the effect or the level left; settings: time 24-72 hrs
L02 = experiment: Antiproliferative activity against human L02 cells assessed as cell growth inhibition at 500 uM for 24 to 72 hrs by MTT assay relative to control; assay type: functional; parameters: scale not given: the % may be the effect or the level left; settings: time 24-72 hrs
HepG2 [12] = experiment: Downregulation of phosphorylated Akt in human HepG2 cells xenografted in BALB/c mouse at 160 mg/kg/day, ip for 19 days and measured after 24 hrs post last dose by immunohistochemical analysis relative to control; assay type: functional; settings: time 20 day
HepG2 [13] = experiment: Downregulation of NF-kappaB in human HepG2 cells xenografted in BALB/c mouse at 160 mg/kg/day, ip for 19 days and measured after 24 hrs post last dose by immunohistochemical analysis relative to control; assay type: functional; settings: time 20 day
HepG2 [14] = experiment: Downregulation of MMP9 in human HepG2 cells xenografted in BALB/c mouse at 160 mg/kg/day, ip for 19 days and measured after 24 hrs post last dose by immunohistochemical analysis relative to control; assay type: functional; settings: time 20 day
HepG2 [15] = experiment: Downregulation of MMP2 in human HepG2 cells xenografted in BALB/c mouse at 160 mg/kg/day, ip for 19 days and measured after 24 hrs post last dose by immunohistochemical analysis relative to control; assay type: functional; settings: time 20 day
[16] = target: T1, 1,25-dihydroxyvitamin D(3) 24-hydroxylase, mitochondrial; experiment: Inhibition of CYP24 (unknown origin); assay type: ADME
[17] = target: T2, Amine oxidase [flavin-containing] A; experiment: Inhibition of MAO-A (unknown origin)
[18] = target: T3, Amine oxidase [flavin-containing] B (Homo sapiens, UniProt P27338); experiment: Inhibition of MAO-B (unknown origin)
T3 sequence (P27338 whole entry): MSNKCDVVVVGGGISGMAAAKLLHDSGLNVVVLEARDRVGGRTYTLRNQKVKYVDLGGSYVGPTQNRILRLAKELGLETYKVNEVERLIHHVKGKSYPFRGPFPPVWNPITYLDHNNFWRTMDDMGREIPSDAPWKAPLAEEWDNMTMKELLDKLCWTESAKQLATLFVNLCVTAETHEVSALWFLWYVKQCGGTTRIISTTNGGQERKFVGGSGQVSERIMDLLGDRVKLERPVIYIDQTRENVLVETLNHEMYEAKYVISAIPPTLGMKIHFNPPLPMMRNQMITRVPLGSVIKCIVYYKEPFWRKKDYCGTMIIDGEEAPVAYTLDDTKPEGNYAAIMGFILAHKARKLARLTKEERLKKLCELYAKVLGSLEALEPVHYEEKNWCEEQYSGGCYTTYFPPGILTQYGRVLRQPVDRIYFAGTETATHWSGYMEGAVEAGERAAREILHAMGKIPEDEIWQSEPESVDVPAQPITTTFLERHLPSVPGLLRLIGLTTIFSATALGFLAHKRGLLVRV

Homo sapiens [19] = species on record: Homo sapiens; experiment: Selectivity index, ratio of IC50 for MAO-A (unknown origin) to IC50 for MAO-B (unknown origin)
[20] = target: T2, Amine oxidase [flavin-containing] A; experiment: Inhibition of human MAO-A assessed as measuring amount of 4-hydroxyquinoline using kynuramine as substrate incubated for 20 mins by fluorescence spectrophotometry
[21] = target: T3, Amine oxidase [flavin-containing] B; experiment: Inhibition of human MAO-B assessed as measuring amount of 4-hydroxyquinoline using kynuramine as substrate incubated for 20 mins by fluorescence spectrophotometry
Homo sapiens [22] = species on record: Homo sapiens; experiment: Selectivity index, ratio of IC50 for human MAO-A to IC50 for human MAO-B
MDA-MB-231 = experiment: Cytotoxicity against human MDA-MB-231 cells assessed as cell growth inhibition incubated for 72 hrs by alamar blue staining based assay; assay type: functional; settings: MDA-MB-231, 72 h

pIC50 [1]: 4.24
pIC50 [2]: 4.21
pIC50 [3]: 5.70
Compound: O=C(/C=C/c1ccc(O)cc1)OC[C@H]1O[C@@H](Oc2ccc(O)c3c2C[C@H](O)CC3=O)C[C@@H](O)[C@@H]1O

pIC50 (A549): 5.00
pIC50 (HT-29): 4.65
pIC50 (MCF7 [4]): 4.54
pIC50 (HepG2 [5]): 4.67
Compound: CC(C)c1ccc2c(c1)C(C)(C)CC(Sc1nc(N)n(S(=O)(=O)c3ccc(Cl)c([N+](=O)[O-])c3)n1)C2=O (configuration not stated)
pIC50 (T-24): 4.57

pIC50 (MCF7 [6]): 6.03
Compound: COc1ccc(C2C(C#N)=C(N)Oc3c2s/c(=N\c2ccc(Br)cc2)n3/N=C2\CCCc3cc(OC)ccc32)cc1 (configuration not stated)

MIC (Nannizzia gypsea): 3 µg/mL (≈ 11.2 µM)
Compound: O=C1/C(=C/c2ccc(Cl)cc2)CCc2ccccc21

pIC50 [7]: 5.46
Compound: COc1ccc2c(c1)CCC(Cc1ccc(O)cc1)C2=O (configuration not stated)
Activity (DU-145): 25%

pIC50 [9]: 6.40
Compound: O=C1/C(=C/c2ccccc2-c2ccccc2)CCc2cc(O)ccc21
Activity [8]: 0.7%

pIC50 [10]: 7.44
Compound: O=C1CCCc2ccc(OCc3ccc(Cl)cc3)cc21

MIC (Candida albicans): 12.5 µg/mL (≈ 33.1 µM)
MIC (Aspergillus fumigatus): 12.5 µg/mL (≈ 33.1 µM)
Compound: COc1ccc2c(c1)CC[C@@H]1C2=NN(C2=NC(=O)CS2)[C@@H]1c1ccccc1

pIC50 (RAW264.7): 6.60
Compound: Nc1ccc2c(c1)CC/C(=C\c1ccccc1F)C2=O

Compound: COc1ccc2c(c1)C(=O)CCC2
Activity (HepG2 [11]): >50%
Activity (L02): >50%
Activity (HepG2 [12]): 2.91%
Activity (HepG2 [13]): 35.47%
Activity (HepG2 [14]): 7.64%
Activity (HepG2 [15]): 9.69%

pIC50 [16]: 6.05
Compound: COc1ccc2c(c1)CC/C(=C\c1cc(C(F)(F)F)ccc1C(F)(F)F)C2=O

pIC50 [17]: 6.12
pIC50 [18]: 7.89
Ratio IC50 (Homo sapiens [19]): 58
Compound: O=C1/C(=C/c2cccc(Br)c2)CCc2ccc(O)cc21

pIC50 [20]: 5.71
pIC50 [21]: 6.15
Ratio IC50 (Homo sapiens [22]): 2.8
Compound: COc1ccc2c(c1)C(=O)/C(=C/c1ccc[nH]1)CC2

Compound: C[C@H]1CC(=O)c2c(O)cccc2[C@@H]1O
pIC50 (MDA-MB-231): < 3.28
